Read-outs that look alike come from different tables or passages of the source.
Legend:
[1] = Kinetic solubility test in bio-relevant media and H2O; assay type: physicochemical; conditions: for solubility: thermodynamic from solid; for solubility / dissolution profile in bio-relevant media (FaSSIF and FeSSIF): RT; for dissolution profile in bio-relevant media (FaSSIF and FeSSIF): sampled at 1 hr, 4 hrs and 24 hrs
Experimental: About 20 mg of each sample (Forms A, B or C2) was equilibrated in 3.0 mL of three bio-relevant media, i.e., fasted state small intestinal fluid (FaSSIF), Fed State Simulating Intestinal Fluid (FeSSIF) and Simulated Gastric Fluid (SGF), or H2O into each 4-mL plastic vial. The suspensions were mixed via triturating (25 rpm) at RT, with each suspension sampled at the end of 1 hr, 4 hrs and 24 hrs, respectively.

[2] = Phase I clinical safety study; assay type: in vivo; conditions: capsules, 2.5-120 mg bid, 25 subjects
[3] = Solid form change on heating (XRPD, VT-XRPD); assay type: physicochemical
Experimental: Associated with the results of TGA/DSC and solution NMR, Form B was confirmed to be an anhydrate.
To confirm the form change during heating of Form C2, VT-XRPD was conducted under protection of nitrogen.

[4] = Hygroscopicity test (DVS isotherm, XRPD); assay type: physicochemical; conditions: for Water uptake % at 80% RH, Adsorption / Water uptake % at 80% RH, Desorption: DVS at 25° C.; for Hygroscopicity: concluded from the water uptake from adsorption cycle
Experimental: To investigate the solid form stability as a function of humidity, DVS isotherm plot (at 25° C.) and XRPD pattern were collected, see Table 11. The uptake percentage differences between desorption and adsorption are speculated to be related to the replacement of possible residual solvent with moisture.

[5] = Solid-state stability test; assay type: physicochemical; conditions: HPLC
Experimental: Each sample (Forms A, B or C2) was exposed to both conditions of 25° C./60% RH and 40° C./75% RH. After one-week storage, all the samples were characterized by XRPD to test any solid form change and by HPLC to check the purity change.

[6] = tested on: MDA-MB-436 (BRCA1 Deficient); assay: Synthetic lethality, CellTiter-Glo cell viability, MDA-MB-436; assay type: cell-based, human; conditions: 7-day exposure, table, read-out: EC50 for growth inhibition
Experimental: (§1) MDA-MB-231 cells that is not BRCA gene mutant or other homologous recombination deficient were maintained in DMEM supplemented with fetal bovine serum (10% FBS), 100 units/ml penicillin and 0.1 mg/ml streptomycin. BRCA1-deficient cell line MDA-MB-436 was maintained in RPMI-1640 supplemented with 10% FBS, 100 units/ml penicillin and 0.1 mg/ml streptomycin. Both two cell lines were kept at 95% humidity and 5% CO2 in a 37° C. incubator.
(§2) The number of tumor cells seeded per well of a 96-well plate was optimized for each cell line to ensure logarithmic growth over the 7 days treatment period. Cells were left to attach for 16 hours and then treated with specific concentrations of test compounds. Following a 7-day exposure to the compound, the growth-inhibitory activity of compounds was determined using CellTiter-Glo luminescent cell viability assay (Promega). Luminescent signal was measured using PHERAstar FS reader (BMG Labtech). Cell viability was expressed as relative to mock treatment control. EC50 values for growth inhibition were calculated by fitting dose-dependent data to the four-parameter logistic model using XLfit software.

MDA-MB-231 cells = assay: Synthetic lethality, CellTiter-Glo cell viability, MDA-MB-231; assay type: cell-based; conditions: MDA-MB-231, 7-day exposure, table; read-out: EC50 for growth inhibition
Experimental: as §1, §2

[7] = tested on: intracellular PARP activity in HeLa cells; assay: Intracellular target inhibition: cellular PAR formation in hydrogen peroxide treated HeLa cells; assay type: cell-based; conditions: read-out: IC50 (nM) in PARylation assay
Experimental: The assay was performed as follows:
Cells were plated into a 96-well plate with clear bottom and black wall at a density of 5000 cells per well (100 μL). […] In the following day, H2O2 solution in PBS (final concentration 200 μM) was added and the plate was kept at 37° C. for 5 minutes. Then the medium was gently removed by plate inversion, and the cells were fixed by ice-cold MeOH at −20° C. for 20 minutes. […] After removal of solution and repeated wash with PBS, the PAR polymer level was estimated by ArrayScan VTI (ThermoFisher). Percent inhibition was determined on the basis of the residual enzyme activity in the presence of increasing PARP inhibitor concentration. IC50 values were calculated by fitting dose-dependent data to the four-parameter logistic model using XLfit software.

[8] = FaSSIF, read-out: solubility in FaSSIF
[9] = FeSSIF, read-out: solubility in FeSSIF

C[C@]12CCCN1CC1=NNC(=O)c3cc(F)cc4[nH]c2c1c34 [Crystalline Sesqui-Hydrate of Compound 1]
solubility [1, 8]: < 100 µg/mL
solubility [1, 9]: 1000 µg/mL
clinical safety and tolerability [2]: safe and well tolerated

C[C@]12CCCN1CC1=NNC(=O)c3cc(F)cc4[nH]c2c1c34 [Form A]
form change after heating and cooling at ambient conditions (XRPD) ([3]; heated to 170° C.): No form change
Water uptake % at 80% RH, Adsorption [4]: 1.9%
Water uptake % at 80% RH, Desorption [4]: 2.1%
Hygroscopicity [4]: Hygroscopic
Purity of initial(%) ([5]; 25° C./60% RH (7 days)): 100.1%
Purity of initial(%) ([5]; 40° C./75% RH (7 days)): 100.1%
dissolution profile in bio-relevant media (FaSSIF and FeSSIF) [1]: good solubility was observed in FaSSIF and FeSSIF at the first time point, but the values went down after equilibrated for a longer time
dissolution profile in bio-relevant media (FaSSIF and FeSSIF) ([1]; listed as phosphate salt of Compound 1): higher solubility at the first time point, but the values went down after equilibrated for a longer time

C[C@]12CCCN1CC1=NNC(=O)c3cc(F)cc4[nH]c2c1c34.O=C(O)/C=C\C(=O)O [Form B]
form change after heating and cooling at ambient conditions (XRPD) ([3]; heated to 150° C.): No form change
Water uptake % at 80% RH, Adsorption [4]: 0.7%
Water uptake % at 80% RH, Desorption [4]: 2.4%
Hygroscopicity [4]: Slightly hygroscopic
Purity of initial(%) ([5]; 25° C./60% RH (7 days)): 100.2%
Purity of initial(%) ([5]; 40° C./75% RH (7 days)): 100.1%
dissolution profile in bio-relevant media (FaSSIF and FeSSIF) [1]: Steady dissolution rate
dissolution profile in bio-relevant media (FaSSIF and FeSSIF) ([1]; listed as maleate salt of Compound 1): steady dissolution profiles
solubility [1, 8]: ~200 µg/mL
solubility [1, 9]: ~500 µg/mL
physical stability of the solid suspended in the media ([1]; up to 24 hours): physically stable

C[C@]12CCCN1CC1=NNC(=O)c3cc(F)cc4[nH]c2c1c34.O=C(O)/C=C/C(=O)O [Form C2]
physical stability at ambient conditions ([3]; ambient conditions): good physical stability
form change during heating (VT-XRPD) ([3]; heating to 140° C. and cooling back to 30° C. with N2 flow): a new form named as Form C3 was observed
Water uptake % at 80% RH, Adsorption [4]: 0.2%
Water uptake % at 80% RH, Desorption [4]: 0.3%
Hygroscopicity [4]: Slightly hygroscopic
Purity of initial(%) ([5]; 25° C./60% RH (7 days)): 100.2%
Purity of initial(%) ([5]; 40° C./75% RH (7 days)): 100.0%
dissolution profile in bio-relevant media (FaSSIF and FeSSIF) [1]: good solubility was observed in FaSSIF and FeSSIF at the first time point, but the values went down after equilibrated for a longer time
dissolution profile in bio-relevant media (FaSSIF and FeSSIF) ([1]; listed as fumarate salt of Compound 1): higher solubility at the first time point, but the values went down after equilibrated for a longer time

C[C@]12CCCN1CC1=NNC(=O)c3cc(F)cc4[nH]c2c1c34.O=C(O)/C=C/C(=O)O [Form C3]
time to convert back to Form C2 after exposure to ambient conditions ([3]; ~25° C./70% RH): ≤ 1 h

O=C(c1cc(Cc2n[nH]c(=O)c3ccccc23)ccc1F)N1CCN(C(=O)C2CC2)CC1 [Olaparib]
EC50 [6]: 21 ± 7 nM
EC50 (MDA-MB-231 cells): ~5000 nM

C[C@]1(c2nc3c(C(N)=O)cccc3[nH]2)CCCN1 [Veliparib]
EC50 [6]: 820 ± 300 nM
IC50 [7]: 2.66 nM
EC50 (MDA-MB-231 cells): > 10000 nM
